From ChEMBL document CHEMBL5150065, “Design, synthesis, and bioevaluation of imidazo [1,2-a] pyrazine derivatives as tubulin polymerization inhibitors with potent anticancer activities” (Bioorg Med Chem, 2022)

Assays:
HepG2 = experiment: Antiproliferative activity against human HepG2 cells assessed as inhibition of cell growth incubated for 48 hrs by MTT assay; format: functional, cell-based; details: HepG2, 48 h
MDA-MB-231 = experiment: Antiproliferative activity against human MDA-MB-231 cells assessed as inhibition of cell growth incubated for 48 hrs by MTT assay; format: functional, cell-based; details: MDA-MB-231, 48 h
A549 = experiment: Antiproliferative activity against human A549 cells assessed as inhibition of cell growth incubated for 48 hrs by MTT assay; format: functional, cell-based; details: A549, 48 h
HCT-116 [1] = experiment: Antiproliferative activity against human HCT-116 cells assessed as inhibition of cell growth incubated for 48 hrs by MTT assay; format: functional, cell-based; details: HCT-116, 48 h
HCT-116 [2] = experiment: Induction of cell cycle arrest in human HCT-116 cells assessed as increase in G2/M phase cells at 20 nM measured after 48 hrs by propidium iodide/RNase staining based flow cytometry analysis (reference value: […] %); format: functional
HCT-116 [3] = experiment: Induction of cell cycle arrest in human HCT-116 cells assessed as G1 phase cells at 20 nM measured after 48 hrs by propidium iodide/RNase staining based flow cytometry analysis (reference value: 61.51 %); format: functional
HCT-116 [4] = experiment: Induction of cell cycle arrest in human HCT-116 cells assessed as S phase cells at 20 nM measured after 48 hrs by propidium iodide/RNase staining based flow cytometry analysis (reference value: […] %); format: functional

| Compound | IC50 (HepG2) [µM] | IC50 (MDA-MB-231) [µM] | IC50 (A549) [µM] | IC50 (HCT-116 [1]) [µM] | Activity (HCT-116 [2]) [%] | Activity (HCT-116 [3]) [%] | Activity (HCT-116 [4]) [%] |
| --- | --- | --- | --- | --- | --- | --- | --- |
| COc1cc(-c2nccn3cc(-c4ccc(Cl)cc4)nc23)cc(OC)c1OC | 0.475 | 2.09 | 7.29 | 0.351 | – | – | – |
| COc1cc(-c2nccn3cc(-c4ccc([N+](=O)[O-])cc4)nc23)cc(OC)c1OC | > 10 | > 10 | > 10 | > 10 | – | – | – |
| COc1cc(C(=O)c2cn3ccnc(-c4ccc5[nH]ccc5c4)c3n2)cc(OC)c1OC | > 10 | > 10 | > 10 | 0.689 | – | – | – |
| COc1cc(C(=O)c2cn3ccnc(-c4ccc(C)cc4)c3n2)cc(OC)c1OC | > 10 | > 10 | 7.9 | > 10 | – | – | – |
| COc1cc(C(=O)c2cn3ccnc(-c4ccc(F)cc4)c3n2)cc(OC)c1OC | > 10 | > 10 | > 10 | > 10 | – | – | – |
| COc1cc(C(=O)c2cn3ccnc(-c4ccccc4)c3n2)cc(OC)c1OC | > 10 | > 10 | 3.94 | 1.94 | – | – | – |
| COc1ccc(-c2cn3ccnc(-c4cc(OC)c(OC)c(OC)c4)c3n2)cc1O | 0.087 | > 10 | > 10 | 0.074 | – | – | – |
| COc1cc(C(=O)c2cn3ccc(C)cc3n2)cc(OC)c1OC | 6.7 | 9.28 | > 10 | 3.06 | – | – | – |
| COc1ccc(-c2cn3ccnc(-c4cc(OC)c(OC)c(OC)c4)c3n2)cc1[N+](=O)[O-] | > 10 | > 10 | > 10 | > 10 | – | – | – |
| COc1cc(C(=O)c2cn3ccc(C(F)(F)F)cc3n2)cc(OC)c1OC | > 10 | > 10 | > 10 | > 10 | – | – | – |
| COc1cc(C(=O)c2cn3cc(Br)nc(Cl)c3n2)cc(OC)c1OC | 5.12 | 6.77 | 8.26 | 1.62 | – | – | – |
| COc1cc2c(c(OC)c1OC)-c1ccc(OC)c(=O)cc1[C@@H](NC(C)=O)CC2 [COLCHICINE] | 0.054 | 0.176 | 0.184 | 0.011 | 60.81 | 24.07 | 15.12 |
| COc1cc(-c2nccn3cc(-c4ccc(C(F)(F)F)cc4)nc23)cc(OC)c1OC | 2.63 | > 10 | > 10 | > 10 | – | – | – |
